PubChem BioAssay AID1963874 (Molecular Pharmacology Branch, DTP, NCI, 2024)

Tested on: 253994-281-T-J1-PDC KRAS-mutant spheroids with HUVEC/MSC, viability
Assay: Anticancer human tumor 253994-281-T-J1-PDC patient-derived colorectal carcinoma cell line growth inhibition [KRAS2]
Conditions: for IC50: curve of first compound; for viability, T/C: stronger effect = lower value
Procedure, shortened: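 KRAS-mutant tumor cells were grown as spheroids with HUVEC endothelial cells and human MSCs as stroma. Targeted agents were tested alone and with KRAS pathway inhibitors. Doses started at or near clinical Cmax, or 10 microM, descending half-log.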

[1] = second compound 0.1 µM, first compound 0.0316 µM
[2] = second compound 0.1 µM, first compound 0.1 µM
[3] = second compound 0.1 µM, first compound 0.316 µM
[4] = second compound 0.1 µM, first compound 1 µM
[5] = second compound 0.1 µM, first compound 3.16 µM
[6] = second compound 0.1 µM, first compound 10 µM
[7] = second compound 0.316 µM, first compound 0.0316 µM
[8] = second compound 0.316 µM, first compound 0.1 µM
[9] = second compound 0.316 µM, first compound 0.316 µM
[10] = second compound 0.316 µM, first compound 1 µM
[11] = second compound 0.316 µM, first compound 3.16 µM
[12] = second compound 0.316 µM, first compound 10 µM
[13] = second compound 1 µM, first compound 0.0316 µM
[14] = second compound 1 µM, first compound 0.1 µM
[15] = second compound 1 µM, first compound 0.316 µM
[16] = second compound 1 µM, first compound 1 µM
[17] = second compound 1 µM, first compound 3.16 µM
[18] = second compound 1 µM, first compound 10 µM
[19] = second compound 3.16 µM, first compound 0.0316 µM
[20] = second compound 3.16 µM, first compound 0.1 µM
[21] = second compound 3.16 µM, first compound 0.316 µM
[22] = second compound 3.16 µM, first compound 1 µM
[23] = second compound 3.16 µM, first compound 3.16 µM
[24] = second compound 3.16 µM, first compound 10 µM
[25] = second compound 10 µM, first compound 0.0316 µM
[26] = second compound 10 µM, first compound 0.1 µM
[27] = second compound 10 µM, first compound 0.316 µM
[28] = second compound 10 µM, first compound 1 µM
[29] = second compound 10 µM, first compound 3.16 µM
[30] = second compound 10 µM, first compound 10 µM
[31] = second compound 0.1 µM, first compound 0.01 µM
[32] = second compound 0.316 µM, first compound 0.01 µM
[33] = second compound 1 µM, first compound 0.01 µM
[34] = second compound 3.16 µM, first compound 0.01 µM
[35] = second compound 10 µM, first compound 0.01 µM
[36] = second compound 0.1 µM, first compound 0.00316 µM
[37] = second compound 0.316 µM, first compound 0.00316 µM
[38] = second compound 1 µM, first compound 0.00316 µM
[39] = second compound 3.16 µM, first compound 0.00316 µM
[40] = second compound 10 µM, first compound 0.00316 µM
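Note: spheroids exposed to agents for seven days before readout.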
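Throughout, for viability, T/C: percent of DMSO vehicle control viability.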

Row | SMILES | IC50 (second compound 0.1 µM) [nM] | IC50 (second compound 0.316 µM) [nM] | IC50 (second compound 1 µM) [nM] | IC50 (second compound 3.16 µM) [nM] | IC50 (second compound 10 µM) [nM] | viability, T/C [1] [%] | viability, T/C [2] [%] | viability, T/C [3] [%] | viability, T/C [4] [%] | viability, T/C [7] [%] | viability, T/C [8] [%] | viability, T/C [9] [%] | viability, T/C [10] [%] | viability, T/C [13] [%] | viability, T/C [14] [%] | viability, T/C [15] [%] | viability, T/C [19] [%] | viability, T/C [20] [%] | viability, T/C [25] [%] | viability, T/C [26] [%] | further results
1 | CC(C)NCC(C(=O)N1CCN(c2ncnc3c2C(C)CC3O)CC1)c1ccc(Cl)cc1 (stereo not given) + CNCc1ccccc1-c1csc(C(C)Nc2nc(C)nc3cc(OC)c(OC)cc23)c1 | > 10000 | > 10000 | > 10000 | < 31.6 | < 31.6 | 110 | 109 | 99.6 | 111 | 110 | 96 | 98.2 | 113 | 121 | 108 | 88.1 | 38.1 | 29.8 | 0.17 | 0.14 | viability, T/C [5]: 94.7%; viability, T/C [6]: 105%; viability, T/C [11]: 107%; viability, T/C [12]: 101%; viability, T/C [16]: 103%; viability, T/C [17]: 95.2%; viability, T/C [18]: 99.4%; viability, T/C [21]: 24%; viability, T/C [22]: 34.8%; viability, T/C [23]: 24.1%; viability, T/C [24]: 40.1%; viability, T/C [27]: 0.14%; viability, T/C [28]: 0.16%; viability, T/C [29]: 0.13%; viability, T/C [30]: 0.27%
2 | CC1COCCN1c1cc(-c2ccnn2C)c2ccnc(-c3ccn[nH]3)c2n1 (stereo not given) + CNCc1ccccc1-c1csc(C(C)Nc2nc(C)nc3cc(OC)c(OC)cc23)c1 | > 3160 | > 3160 | 296 | < 10 | < 10 | 106 | 76.1 | 50.7 | 60.2 | 91.5 | 73.5 | 46.5 | 55.9 | 85.5 | 67.5 | 47 | 42 | 27.3 | 0.21 | 0.17 | viability, T/C [31]: 85.8%; viability, T/C [5]: 52.4%; viability, T/C [32]: 108%; viability, T/C [11]: 57.1%; viability, T/C [33]: 89.5%; viability, T/C [16]: 54.8%; viability, T/C [17]: 42.1%; viability, T/C [34]: 42.9%; viability, T/C [21]: 17.9%; viability, T/C [22]: 24%; viability, T/C [23]: 14.9%; viability, T/C [35]: 0.59%; viability, T/C [27]: 0.19%; viability, T/C [28]: 0.16%; viability, T/C [29]: 0.23%
3 | CCN1CCN(Cc2ccc(Nc3ncc(F)c(-c4cc(F)c5nc(C)n(C(C)C)c5c4)n3)nc2)CC1 + CNCc1ccccc1-c1csc(C(C)Nc2nc(C)nc3cc(OC)c(OC)cc23)c1 | 683 | 530 | 420 | < 3.16 | < 3.16 | 84.1 | 78.7 | 71.4 | 39.8 | 73.5 | 85.5 | 64.7 | 31.4 | 78.2 | 76.3 | 62.5 | 36.4 | 20.3 | 0.19 | 0.14 | viability, T/C [36]: 97.4%; viability, T/C [31]: 82.5%; viability, T/C [37]: 101%; viability, T/C [32]: 78%; viability, T/C [38]: 82.7%; viability, T/C [33]: 82.2%; viability, T/C [16]: 13.5%; viability, T/C [39]: 44.8%; viability, T/C [34]: 37%; viability, T/C [21]: 11.9%; viability, T/C [22]: 0.18%; viability, T/C [40]: 0.2%; viability, T/C [35]: 0.39%; viability, T/C [27]: 0.34%; viability, T/C [28]: 0.22%
4 | CCNC(=O)CC1N=C(c2ccc(Cl)cc2)c2cc(OC)ccc2-n2c(C)nnc21 (stereo not given) + CNCc1ccccc1-c1csc(C(C)Nc2nc(C)nc3cc(OC)c(OC)cc23)c1 | > 10000 | > 10000 | > 10000 | 64 | < 31.6 | 106 | 103 | 86.8 | 85.8 | 110 | 100 | 101 | 90 | 87.3 | 106 | 103 | 48.9 | 53.7 | 0.26 | 0.24 | viability, T/C [5]: 91.7%; viability, T/C [6]: 88.9%; viability, T/C [11]: 87.3%; viability, T/C [12]: 78.1%; viability, T/C [16]: 88.4%; viability, T/C [17]: 79%; viability, T/C [18]: 64.3%; viability, T/C [21]: 42.8%; viability, T/C [22]: 38.2%; viability, T/C [23]: 34.8%; viability, T/C [24]: 27.7%; viability, T/C [27]: 0.23%; viability, T/C [28]: 0.18%; viability, T/C [29]: 0.18%; viability, T/C [30]: 0.29%
5 | Cn1nccc1Nc1nccc(-c2cc3c(s2)C(C)(C)N(CCN2CCOCC2)C3=O)n1 + CNCc1ccccc1-c1csc(C(C)Nc2nc(C)nc3cc(OC)c(OC)cc23)c1 | 2140 | 1520 | 863 | < 31.6 | < 31.6 | 97.5 | 102 | 87.6 | 74.6 | 106 | 89.2 | 84 | 60.7 | 87.7 | 73.2 | 67.9 | 44.4 | 46.3 | 0.25 | 0.16 | viability, T/C [5]: 37.1%; viability, T/C [6]: 23.8%; viability, T/C [11]: 31.8%; viability, T/C [12]: 19.4%; viability, T/C [16]: 49.8%; viability, T/C [17]: 24%; viability, T/C [18]: 10%; viability, T/C [21]: 29.3%; viability, T/C [22]: 0.46%; viability, T/C [23]: 0.39%; viability, T/C [24]: 0.26%; viability, T/C [27]: 0.15%; viability, T/C [28]: 0.14%; viability, T/C [29]: 0.39%; viability, T/C [30]: 0.2%
6 | Cn1ncnc1[C@H]1c2n[nH]c(=O)c3cc(F)cc(c23)N[C@@H]1c1ccc(F)cc1 + CNCc1ccccc1-c1csc(C(C)Nc2nc(C)nc3cc(OC)c(OC)cc23)c1 | > 100 | > 100 | > 100 | < 0.316 | < 0.316 | 110 | 99.8 | – | – | 108 | 79.5 | – | – | 92.3 | 78.5 | – | 28.2 | 34.9 | 0.15 | 0.24 | viability, T/C (second compound 0.1 µM, first compound 0.000316 µM): 103%; viability, T/C (second compound 0.1 µM, first compound 0.001 µM): 108%; viability, T/C [36]: 114%; viability, T/C [31]: 84.5%; viability, T/C (second compound 0.316 µM, first compound 0.000316 µM): 93.2%; viability, T/C (second compound 0.316 µM, first compound 0.001 µM): 96.4%; viability, T/C [37]: 105%; viability, T/C [32]: 94.5%; viability, T/C (second compound 1 µM, first compound 0.000316 µM): 94.4%; viability, T/C (second compound 1 µM, first compound 0.001 µM): 91.9%; viability, T/C [38]: 87.4%; viability, T/C [33]: 94.3%; viability, T/C (second compound 3.16 µM, first compound 0.000316 µM): 28.7%; viability, T/C (second compound 3.16 µM, first compound 0.001 µM): 41.5%; viability, T/C [39]: 30.3%; viability, T/C [34]: 38.9%; viability, T/C (second compound 10 µM, first compound 0.000316 µM): 0.15%; viability, T/C (second compound 10 µM, first compound 0.001 µM): 0.19%; viability, T/C [40]: 0.15%; viability, T/C [35]: 0.14%
